“Also recorded” adds a separate entry of the source.

The source of these data is EP0902088A2, “Peptides with antiproliferative properties” (Radulescu, Razvan T., priority 1996, dated 1999).

One assay concerns MCF-7-Zellen. Briefly: Cell cycle analysis by FACS in MCF-7 breast carcinoma cells. The settings on record: peptide 10^-5M. In kind it is cell-based, human. An excerpt: Die eine Versuchsanordnung beinhaltet Versuche mit der humanen intaktes Retinoblastomprotein enthaltenden Mammakarzinom-Zell-Linie MCF-7 bzw. der humanen defektes Retinoblastomprotein enthaltenden Osteosarkom-Zell-Linie SAOS-2. Man sät die Zellen zuerst in 12-well-Platten 100.000 (= Hunderttausend) Zellen/-well/ml RPMI oder DMEM/10% FCS) aus, läßt sie 24 Stunden adhärieren, […], und stimuliert sie dann entweder mit 10% FCS oder 10^-8 M IGF-1 oder 10^-6 M Insulin für 24 Stunden, wobei der Effekt der jeweils zugegebenen Peptide auf die jeweilige Stimulation, die ein Maß für die Zellteilungsrate ist, untersucht wird. Die Kontrollgruppe (G0/G1-synchronisierte Zellen) wird zum Zeitpunkt 0 nach der dreitägigen Hungerphase fixiert, die restlichen Zellen (+/- Peptid) werden nach 24 Stunden fixiert. Daraufhin werden die Zellen zwecks Zellzyklusanalyse im FACS analysiert. Analoge Methoden finden sich beispielsweise bei R. Fahraeus et al., Current Biology, 1996, Vol. 6, No. 1, pp 84-91 sowie bei L. Zhu et al., Genes & Development, 1993, Vol. 7, pp. 1111-1125.
On the technique in general: A flow cytometer gives signals particle by particle.

A further assay has as its system SAOS-2-Zellen. Put plainly: Cell cycle analysis by FACS in SAOS-2 osteosarcoma cells. The assay is classed as cell-based, human. The settings on record: SAOS-2 stimulated with 10 % FCS; for G1-Phase / S-Phase: peptide 5 x 10^-5M. From the text:
Die eine Versuchsanordnung beinhaltet Versuche mit der humanen intaktes Retinoblastomprotein enthaltenden Mammakarzinom-Zell-Linie MCF-7 bzw. der humanen defektes Retinoblastomprotein enthaltenden Osteosarkom-Zell-Linie SAOS-2. Man sät die Zellen zuerst in 12-well-Platten 100.000 (= Hunderttausend) Zellen/-well/ml RPMI oder DMEM/10% FCS) aus, läßt sie 24 Stunden adhärieren, hungert sie anschließend 3 Tage in DMEM ohne FCS mit dem Zweck, die Zellen in der G0/G1-Phase zu synchronisieren, und stimuliert sie dann entweder mit 10% FCS oder 10^-8 M IGF-1 oder 10^-6 M Insulin für 24 Stunden, wobei der Effekt der jeweils zugegebenen Peptide auf die jeweilige Stimulation, die ein Maß für die Zellteilungsrate ist, untersucht wird. Die Kontrollgruppe (G0/G1-synchronisierte Zellen) wird zum Zeitpunkt 0 nach der dreitägigen Hungerphase fixiert, die restlichen Zellen (+/- Peptid) werden nach 24 Stunden fixiert. Daraufhin werden die Zellen zwecks Zellzyklusanalyse im FACS analysiert. Analoge Methoden finden sich beispielsweise bei R. Fahraeus et al., Current Biology, 1996, Vol. 6, No. 1, pp 84-91 sowie bei L. Zhu et al., Genes & Development, 1993, Vol. 7, pp. 1111-1125.

Setting [1] is: G0/G1-synchronised MCF-7 cells, serum-free.
Setting [2] is: MCF-7 stimulated with IGF-1 10^-8M.
[3] abbreviates: MCF-7 stimulated with Insulin 10^-6M.

On to “H-LFYKKVPKKKRKV-OH [P5, NH2-L-F-Y-K-K-V-P-K-K-K-R-K-V-COOH]”, for which the G1-Phase entry is on record as “vermindert” in the assay on MCF-7-Zellen (setting [1]) and “Zunahme” in the assay on SAOS-2-Zellen. Moreover, the S-Phase entry in the assay on MCF-7-Zellen (setting [1]) was “steigert”; in the assay on MCF-7-Zellen (setting [2]), “vermindern”; in the assay on MCF-7-Zellen (setting [3]), “vermindern”; in the assay with SAOS-2-Zellen, “Abnahme”.

In the case of `CC[C@H](C)[C@H](NC(=O)[C@H](CCCCN)NC(=O)[C@@H](NC(=O)[C@H](CCC(N)=O)NC(=O)[C@H](CCCNC(=N)N)NC(=O)[C@@H](NC(=O)[C@H](CCCCN)NC(=O)[C@H](CCCCN)NC(=O)[C@H](Cc1ccc(O)cc1)NC(=O)[C@H](Cc1ccccc1)NC(=O)[C@@H](N)CC(C)C)C(C)C)[C@@H](C)CC)C(=O)N[C@@H](Cc1c[nH]c2ccccc12)C(=O)N[C@@H](Cc1ccccc1)C(=O)N[C@@H](CCC(N)=O)C(=O)N[C@@H](CC(N)=O)C(=O)N[C@@H](CCCNC(=N)N)C(=O)N[C@@H](CCCNC(=N)N)C(=O)N[C@@H](CCSC)C(=O)N[C@@H](CCCCN)C(=O)N[C@@H](Cc1c[nH]c2ccccc12)C(=O)N[C@@H](CCCCN)C(=O)N[C@@H](CCCCN)C(=O)O` [P6, NH2-LFYKKVRQIKIWFQNRRMKWKK-COOH], the G1-Phase entry is “vermindert” with MCF-7-Zellen (setting [1]), “Zunahme” in the assay on MCF-7-Zellen (setting [2]) and “Zunahme” in the assay on SAOS-2-Zellen. Also, the “Morphologie der behandelten Zellen” value in the assay with MCF-7-Zellen (setting [1]) and in the assay with MCF-7-Zellen (setting [2]) was “entspricht der apoptotischer Zellen” each time. For the same compound, the S-Phase result with MCF-7-Zellen (setting [1]) is reported as “steigert”; with MCF-7-Zellen (setting [2]), “Abnahme; also recorded: vermindern”; in the assay with MCF-7-Zellen (setting [3]) it was “vermindern”; in the assay on SAOS-2-Zellen, “Abnahme”.

In the case of “NH2-KVLYFKRQIKIWFQNRRMKWKK-COOH (H-KVLYFKRQIKIWFQNRRMKWKK-OH) [P8]”, in the assay with MCF-7-Zellen (setting [2]), the G1-Phase entry was “Zunahme”, the G2/M-Phase entry was “Zunahme”, the “Morphologie der behandelten Zellen” value is reported as “entspricht der apoptotischer Zellen” and the S-Phase entry is “Abnahme”.

For `CC(C)C[C@@H](NC(=O)[C@H](NC(=O)[C@H](N)CCCCN)C(C)C)C(=O)N[C@H](Cc1ccc(O)cc1)C(=O)N[C@H](Cc1ccccc1)C(=O)N[C@H](CCCCN)C(=O)NCC(=O)NCC(=O)NCC(=O)NCCCC[C@H](NC(=O)CNC(=O)CNC(=O)CNC(=O)[C@@H](CCCCN)NC(=O)[C@@H](Cc1ccccc1)NC(=O)[C@@H](Cc1ccc(O)cc1)NC(=O)[C@@H](CC(C)C)NC(=O)[C@H](NC(=O)[C@H](N)CCCCN)C(C)C)C(=O)N[C@H](CCCNC(=N)N)C(=O)NCC(=O)NCCCC[C@H](NC(=O)CNC(=O)[C@@H](CCCNC(=N)N)NC(=O)[C@H](CCCCNC(=O)CNC(=O)CNC(=O)CNC(=O)[C@@H](CCCCN)NC(=O)[C@@H](Cc1ccccc1)NC(=O)[C@@H](Cc1ccc(O)cc1)NC(=O)[C@@H](CC(C)C)NC(=O)[C@H](NC(=O)[C@H](N)CCCCN)C(C)C)NC(=O)CNC(=O)CNC(=O)CNC(=O)[C@@H](CCCCN)NC(=O)[C@@H](Cc1ccccc1)NC(=O)[C@@H](Cc1ccc(O)cc1)NC(=O)[C@@H](CC(C)C)NC(=O)[C@H](NC(=O)[C@H](N)CCCCN)C(C)C)C(=O)NCC(=O)O` (racemic) [P7s, NH2-[dK-dV-dL-dY-dF-dK-GGG ]4-[lK-dR-G]2-lK-G-COOH], in the assay with MCF-7-Zellen (setting [2]), the G1-Phase result is listed as “Zunahme”, the G2/M-Phase entry is listed as “Zunahme”, the “Morphologie der behandelten Zellen” value is recorded as “entspricht der apoptotischer Zellen” and the S-Phase result is on record as “Abnahme”.

Consider Penetratin [reference compound], for which the S-Phase result with MCF-7-Zellen (setting [2]) and in the assay on MCF-7-Zellen (setting [3]) was “keinen Effekt” in each case. Moreover, the “Bremsen der Zellzyklusprogression von SAOS-2-Zellen” value in the assay on SAOS-2-Zellen (Tab 2) is reported as “nicht”.
